Assay in all cases: relative viability (nuclei count vs DMSO), 5 days (fraction); higher = more cells survive
Compound in assay [1]: CC1=C(N=C(N=C1N)[C@H](CC(=O)N)NC[C@@H](C(=O)N)N)C(=O)N[C@@H]([C@H](C2=CN=CN2)OC3C(C(C(C(O3)CO)O)O)OC4C(C(C(C(O4)CO)O)OC(=O)N)O)C(=O)N[C@H](C)[C@H]([C@H](C)C(=O)N[C@@H]([C@@H](C)O)C(=O)NCCC5=NC(=CS5)C6=NC(=CS6)C(=O)NCCC[S+](C)C)O [Bleomycin] + Cc1cc(Nc2cc(N3CCN(C)CC3)nc(Sc3ccc(NC(=O)C4CC4)cc3)n2)n[nH]1 [Tozasertib] (partner 0.1 µM)
Conditions: main component drawn. The procedure, abridged: (§1)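 Cells from lung cancer lines were seeded into 1536-well plates and, one day later, dosed by pin tool. Treatments were either a single drug or a fixed dose of an anchor drug with five library-drug doses (not always all listed) in √10 steps. After 5 days, nuclei were stained in a one-step fixation (final 0.05% Triton X-100, 1% formaldehyde, 1 ug/ml Hoechst) and counted on 4× images, and relative viability is the treated-to-vehicle nuclei ratio, as the median of duplicate plates.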

Compound in assay [2]: COc1cc([C@@H]2c3cc4c(cc3[C@@H](O[C@@H]3O[C@@H]5CO[C@@H](C)O[C@H]5[C@H](O)[C@H]3O)[C@H]3COC(=O)[C@H]23)OCO4)cc(OC)c1O [Etoposide] + CC(C)C[C@H](NC(=O)[C@H](Cc1ccccc1)NC(=O)c1cnccn1)B(O)O [Bortezomib] (partner 0.002 µM)
The procedure, abridged:
as §1

Compound in assay [3]: COc1cc([C@@H]2c3cc4c(cc3[C@@H](O[C@@H]3O[C@@H]5CO[C@@H](C)O[C@H]5[C@H](O)[C@H]3O)[C@H]3COC(=O)[C@H]23)OCO4)cc(OC)c1O [Etoposide] + COc1cc2c(Oc3ccc(NC(=O)C4(C(=O)Nc5ccc(F)cc5)CC4)cc3F)ccnc2cc1OCCCN1CCOCC1 [Foretinib] (partner 0.25 µM)
The gist of the method: as §1

Compound in assay [4]: COc1cc([C@@H]2c3cc4c(cc3[C@@H](O[C@@H]3O[C@@H]5CO[C@@H](C)O[C@H]5[C@H](O)[C@H]3O)[C@H]3COC(=O)[C@H]23)OCO4)cc(OC)c1O [Etoposide] + C[C@]1(O)C[C@@H](c2nc(-c3ccc4ccc(-c5ccccc5)nc4c3)c3c(N)nccn32)C1 [Linsitinib] (partner 1 µM)
The procedure, abridged: as §1

For HOP-62, the relative viability in assay [1] (first compound 0.01 µM) amounted to 0.229; in assay [1] (first compound 0.03162 µM) it was 0.208; in assay [1] (first compound 0.1 µM), 0.194; in assay [1] (first compound 0.3162 µM), 0.144; in assay [1] (first compound 1 µM), 0.102; in assay [2] (first compound 0.01 µM), 0.644. Also, the relative viability was found to be 0.901 in assay [2] (first compound 0.03162 µM); 0.298 in assay [2] (first compound 0.1 µM); 0.412 in assay [2] (first compound 0.3162 µM); 0.328 in assay [2] (first compound 1 µM); 1.06 in assay [3] (first compound 0.01 µM); 1.05 in assay [3] (first compound 0.03162 µM). Further, the relative viability in assay [3] (first compound 0.1 µM) worked out at 0.967; in assay [3] (first compound 0.3162 µM) it was 0.628; in assay [3] (first compound 1 µM), 0.418; in assay [4] (first compound 0.01 µM), 0.963; in assay [4] (first compound 0.03162 µM), 1.05; in assay [4] (first compound 0.1 µM), 0.657. Further, the relative viability worked out at 0.631 in assay [4] (first compound 0.3162 µM) and 0.269 in assay [4] (first compound 1 µM).

On to NCI-H2228, for which the relative viability in assay [1] (first compound 0.01 µM) is 0.216; in assay [1] (first compound 0.03162 µM), 0.248; in assay [1] (first compound 0.1 µM), 0.218; in assay [1] (first compound 0.3162 µM), 0.12; in assay [1] (first compound 1 µM), 0.137; in assay [2] (first compound 0.01 µM), 1. In addition, the relative viability in assay [2] (first compound 0.03162 µM) is 1.17; in assay [2] (first compound 0.1 µM), 0.731; in assay [2] (first compound 0.3162 µM), 0.717; in assay [2] (first compound 1 µM), 0.22; in assay [3] (first compound 0.01 µM) it was 0.803; in assay [3] (first compound 0.03162 µM) it was 1.04. Moreover, the relative viability in assay [3] (first compound 0.1 µM) was found to be 0.812; in assay [3] (first compound 0.3162 µM), 0.519; in assay [3] (first compound 1 µM), 0.204; in assay [4] (first compound 0.01 µM), 0.535; in assay [4] (first compound 0.03162 µM) it was 0.57; in assay [4] (first compound 0.1 µM), 0.728. In addition, the relative viability in assay [4] (first compound 0.3162 µM) worked out at 0.627; in assay [4] (first compound 1 µM) it was 0.462.

EPLC-272H: the relative viability in assay [1] (first compound 0.01 µM) stood at 0.232; in assay [1] (first compound 0.03162 µM), 0.243; in assay [1] (first compound 0.1 µM), 0.191; in assay [1] (first compound 0.3162 µM), 0.127; in assay [1] (first compound 1 µM) it was 0.173; in assay [2] (first compound 0.01 µM) it was 0.89. Further, the relative viability in assay [2] (first compound 0.03162 µM) is 1.15; in assay [2] (first compound 0.1 µM) it was 0.669; in assay [2] (first compound 0.3162 µM), 0.958; in assay [2] (first compound 1 µM) it was 0.526; in assay [3] (first compound 0.01 µM) it was 0.626; in assay [3] (first compound 0.03162 µM), 0.722. The relative viability in assay [3] (first compound 0.1 µM) amounted to 0.552; in assay [3] (first compound 0.3162 µM) it was 0.61; in assay [3] (first compound 1 µM), 0.255; in assay [4] (first compound 0.01 µM) it was 1.29; in assay [4] (first compound 0.03162 µM), 1.12; in assay [4] (first compound 0.1 µM), 0.693. The relative viability in assay [4] (first compound 0.3162 µM) stood at 1.14; in assay [4] (first compound 1 µM), 0.504.

RERF-LC-KJ: the relative viability in assay [1] (first compound 0.01 µM) came to 0.311; in assay [1] (first compound 0.03162 µM), 0.339; in assay [1] (first compound 0.1 µM) it was 0.297; in assay [1] (first compound 0.3162 µM), 0.234; in assay [1] (first compound 1 µM), 0.193; in assay [2] (first compound 0.01 µM), 1.04. Further, the relative viability in assay [2] (first compound 0.03162 µM) was 1.2; in assay [2] (first compound 0.1 µM), 0.986; in assay [2] (first compound 0.3162 µM), 1.03; in assay [2] (first compound 1 µM) it was 0.923; in assay [3] (first compound 0.01 µM) it was 0.788; in assay [3] (first compound 0.03162 µM), 0.866. Further, the relative viability in assay [3] (first compound 0.1 µM) turned out to be 0.639; in assay [3] (first compound 0.3162 µM), 0.83; in assay [3] (first compound 1 µM), 0.767; in assay [4] (first compound 0.01 µM), 0.84; in assay [4] (first compound 0.03162 µM), 0.895; in assay [4] (first compound 0.1 µM), 0.866. Moreover, the relative viability in assay [4] (first compound 0.3162 µM) worked out at 0.769; in assay [4] (first compound 1 µM), 0.562.

For NCI-H661, the relative viability in assay [1] (first compound 0.01 µM) was determined as 0.366; in assay [1] (first compound 0.03162 µM), 0.359; in assay [1] (first compound 0.1 µM), 0.36; in assay [1] (first compound 0.3162 µM), 0.374; in assay [1] (first compound 1 µM), 0.35; in assay [2] (first compound 0.01 µM) it was 0.735. Also, the relative viability in assay [2] (first compound 0.03162 µM) amounted to 0.828; in assay [2] (first compound 0.1 µM) it was 0.531; in assay [2] (first compound 0.3162 µM), 0.543; in assay [2] (first compound 1 µM), 0.276; in assay [3] (first compound 0.01 µM) it was 0.982; in assay [3] (first compound 0.03162 µM), 1.06. Also, the relative viability in assay [3] (first compound 0.1 µM) is 0.889; in assay [3] (first compound 0.3162 µM), 0.845; in assay [3] (first compound 1 µM), 0.53; in assay [4] (first compound 0.01 µM), 0.591; in assay [4] (first compound 0.03162 µM), 0.547; in assay [4] (first compound 0.1 µM) it was 0.388. In addition, the relative viability was 0.398 in assay [4] (first compound 0.3162 µM) and 0.235 in assay [4] (first compound 1 µM).

As for PC-14, the relative viability amounted to 0.335 in assay [1] (first compound 0.01 µM); 0.275 in assay [1] (first compound 0.03162 µM); 0.145 in assay [1] (first compound 0.1 µM); 0.0771 in assay [1] (first compound 0.3162 µM); 0.05 in assay [1] (first compound 1 µM); 0.9 in assay [2] (first compound 0.01 µM). Besides, the relative viability in assay [2] (first compound 0.03162 µM) was determined as 1.08; in assay [2] (first compound 0.1 µM), 0.918; in assay [2] (first compound 0.3162 µM), 0.687; in assay [2] (first compound 1 µM) it was 0.666; in assay [3] (first compound 0.01 µM), 0.953; in assay [3] (first compound 0.03162 µM), 0.922. In addition, the relative viability in assay [3] (first compound 0.1 µM) stood at 0.995; in assay [3] (first compound 0.3162 µM), 0.934; in assay [3] (first compound 1 µM) it was 0.832; in assay [4] (first compound 0.01 µM), 1.01; in assay [4] (first compound 0.03162 µM), 1.05; in assay [4] (first compound 0.1 µM) it was 0.956. Besides, the relative viability in assay [4] (first compound 0.3162 µM) turned out to be 0.838; in assay [4] (first compound 1 µM) it was 0.507.

As to COR-L 105, the relative viability in assay [1] (first compound 0.01 µM) worked out at 0.31; in assay [1] (first compound 0.03162 µM), 0.337; in assay [1] (first compound 0.1 µM), 0.33; in assay [1] (first compound 0.3162 µM), 0.325; in assay [1] (first compound 1 µM) it was 0.279; in assay [2] (first compound 0.01 µM), 0.613. For the same cell line, the relative viability was 1.23 in assay [2] (first compound 0.03162 µM); 0.502 in assay [2] (first compound 0.1 µM); 0.7 in assay [2] (first compound 0.3162 µM); 0.495 in assay [2] (first compound 1 µM); 0.926 in assay [3] (first compound 0.01 µM); 1.3 in assay [3] (first compound 0.03162 µM). Moreover, the relative viability worked out at 1.02 in assay [3] (first compound 0.1 µM); 1.02 in assay [3] (first compound 0.3162 µM); 0.645 in assay [3] (first compound 1 µM); 0.874 in assay [4] (first compound 0.01 µM); 0.958 in assay [4] (first compound 0.03162 µM); 1.02 in assay [4] (first compound 0.1 µM). The relative viability came to 0.769 in assay [4] (first compound 0.3162 µM) and 0.713 in assay [4] (first compound 1 µM).

The record behind these values is the supplement of paper PMC10307832.
